For assay [1], the target named is T1, Hepatocyte growth factor receptor (Homo sapiens, UniProt P08581). Put plainly: Inhibition of purified recombinant c-MET (unknown origin) using poly (Glu, Tyr) substrate after 60 mins by ELISA. (An ELISA detects its analyte on a solid surface through an enzyme-linked reagent.)
Assay [2] addresses Proto-oncogene tyrosine-protein kinase receptor Ret (Homo sapiens) (UniProt P07949). Nature of the assay: Inhibition of purified RET (unknown origin) at 1 uM after 60 mins by ELISA.
Assay [3] deals with T2, Vascular endothelial growth factor receptor 2 (Homo sapiens, UniProt P35968). Nature of the assay: Inhibition of purified VEGFR2 (unknown origin) at 0.01 uM after 60 mins by ELISA.
The target of assay [4] is ALK tyrosine kinase receptor (Homo sapiens) (UniProt Q9UM73). Nature of the assay: Inhibition of purified ALK (unknown origin) at 0.1 uM after 60 mins by ELISA.
The target of assay [5] is Receptor tyrosine-protein kinase erbB-2 (Homo sapiens) (UniProt P04626). Nature of the assay: Inhibition of purified ErbB2 (unknown origin) at 1 uM after 60 mins by ELISA.
Assay [6] deals with ALK tyrosine kinase receptor (Homo sapiens) (UniProt Q9UM73). Nature of the assay: Inhibition of purified ALK (unknown origin) at 1 uM after 60 mins by ELISA.
Assay [7] deals with Platelet-derived growth factor receptor alpha (Homo sapiens) (UniProt P16234). Put plainly: Inhibition of purified PDGFRalpha (unknown origin) at 1 uM after 60 mins by ELISA.
The nature of assay [8]: Antiproliferative activity against human EBC1 cells after 72 hrs. To be noted: EBC-1, 72 h.
Assay [9] concerns the target Fibroblast growth factor receptor 1 (Homo sapiens) (UniProt P11362). Nature of the assay: Inhibition of purified FGFR1 (unknown origin) at 1 uM after 60 mins by ELISA.
The target in assay [10] is Proto-oncogene tyrosine-protein kinase Src (Homo sapiens) (UniProt P12931). Put plainly: Inhibition of purified c-Src (unknown origin) at 1 uM after 60 mins by ELISA.
Assay [11] deals with T1, Hepatocyte growth factor receptor. Nature of the assay: Inhibition of purified c-MET (unknown origin) at 1 uM after 60 mins by ELISA.
Assay [12] has as its target T2, Vascular endothelial growth factor receptor 2. Nature of the assay: Inhibition of purified VEGFR2 (unknown origin) at 1 uM after 60 mins by ELISA.
Assay [13] concerns the target T1, Hepatocyte growth factor receptor. Put plainly: Inhibition of purified c-MET (unknown origin) at 0.01 uM after 60 mins by ELISA.
For assay [14] the target is unchanged. Put plainly: Inhibition of purified c-MET (unknown origin) at 0.1 uM after 60 mins by ELISA.
The target of assay [15] is Epidermal growth factor receptor (Homo sapiens) (UniProt P00533). Nature of the assay: Inhibition of purified EGFR (unknown origin) at 1 uM after 60 mins by ELISA.
Assay [16] has as its target Ephrin type-A receptor 2 (Homo sapiens) (UniProt P29317). Nature of the assay: Inhibition of purified EPH-A2 (unknown origin) at 1 uM after 60 mins by ELISA.
Assay [17] addresses T2, Vascular endothelial growth factor receptor 2. Nature of the assay: Inhibition of purified VEGFR2 (unknown origin) at 0.1 uM after 60 mins by ELISA.
The target in assay [18] is Receptor tyrosine-protein kinase erbB-4 (Homo sapiens) (UniProt Q15303). Nature of the assay: Inhibition of purified ErbB4 (unknown origin) at 1 uM after 60 mins by ELISA.
For assay [19], the target named is Tyrosine-protein kinase ABL1 (Homo sapiens) (UniProt P00519). Nature of the assay: Inhibition of purified ABL (unknown origin) at 1 uM after 60 mins by ELISA.
The target of assay [20] is Platelet-derived growth factor receptor beta (Homo sapiens) (UniProt P09619). Nature of the assay: Inhibition of purified PDGFRbeta (unknown origin) at 1 uM after 60 mins by ELISA.
Assay [21] deals with Insulin-like growth factor 1 receptor (Homo sapiens) (UniProt P08069). Put plainly: Inhibition of purified IGF1R (unknown origin) at 1 uM after 60 mins by ELISA.
Assay [22] concerns the target Vascular endothelial growth factor receptor 1 (Homo sapiens) (UniProt P17948). Put plainly: Inhibition of purified Flt1 (unknown origin) at 1 uM after 60 mins by ELISA.
The target in assay [23] is T2, Vascular endothelial growth factor receptor 2. Put plainly: Inhibition of purified VEGFR2 (unknown origin) after 60 mins by ELISA.

What is called IC50 is the concentration needed to halve the response being measured. Broadly, the inhibition is the drop in the measured response relative to a control, in per cent. Low readings indicate little suppression, high ones strong suppression.

For `Nc1noc2cccc(-c3ccc(NC(=O)C4(C(=O)Nc5cccc(F)c5)CC4)cc3)c12`, the IC50 in assay [1] is above 1000 nM.

Regarding `Nc1n[nH]c2cccc(-c3ccc(NC(=O)C4(C(=O)Nc5ccc(F)cc5)CC4)cc3F)c12`, the inhibition in assay [2] stood at 66.1%; in [3], 45.8%; in assay [4], 36.2%; in [5], 0%; in assay [6], 64.9%; in [7] it was 62.5%. The inhibition came to 21.5% in assay [9]; 11.8% in assay [10]; 100% in assay [11]; 100% in [12]; 69.7% in assay [13]; 100% in assay [14]. In addition, the inhibition in [15] was 2.5%; in assay [16], 38.4%; in [17], 89.9%; in assay [18], 3%; in [19], 9.8%; in assay [20] it was 59.3%. The inhibition in assay [21] stood at 45.3%; in assay [22], 40.8%. Further, the IC50 in assay [8] worked out at 180 nM; in assay [1] it was 1.8 nM.

As for `CC(=O)c1ccc(-c2ccc(NC(=O)C3(C(=O)Nc4ccc(-c5cccc6onc(N)c56)cc4)CC3)cc2)s1`, the IC50 in [1] was above 1000 nM.

On to `Nc1noc2cccc(-c3ccc(NC(=O)C4(C(=O)Nc5ccc(F)cc5F)CC4)cc3)c12`, for which the IC50 in [8] is above 10000 nM.

`Nc1noc2cccc(-c3ccc(NC(=O)C4(C(=O)Nc5ccc(F)cc5)CC4)cc3F)c12` registered a half-inhibitory concentration (IC50) in assay [8] of 900 nM.

Turning to `Nc1noc2cccc(-c3ccc(NC(=O)C4(C(=O)Nc5ccc(-c6cnn(C7CCOCC7)c6)cc5)CC4)cc3)c12`, the IC50 in [1] was above 1000 nM.

For `Cc1ccc(NC(=O)C2(C(=O)Nc3ccc(-c4cccc5onc(N)c45)cc3)CC2)cc1`, in [8], the IC50 was found to be 6300 nM.

`Nc1n[nH]c2cccc(-c3ccc(NC(=O)C4(C(=O)Nc5ccc(F)cc5)CC4)c(F)c3)c12` came in with a half-inhibitory concentration (IC50) in assay [8] of 510 nM.

In turn, `Nc1noc2cccc(-c3ccc(NC(=O)C4(C(=O)Nc5ccc(Cl)cc5)CC4)cc3)c12` gave a concentration for half-maximal inhibition (IC50) in assay [8] of 6700 nM.

In assay [8], `Nc1n[nH]c2cccc(-c3ccc(NC(=O)C4(C(=O)Nc5ccc(Cl)cc5)CC4)cc3F)c12` had an IC50 of 990 nM.

As for `Cn1cc(-c2ccc(NC(=O)C3(C(=O)Nc4ccc(-c5cccc6onc(N)c56)cc4)CC3)cc2)cn1`, the IC50 in assay [1] is above 1000 nM.

In [8], `Nc1n[nH]c2cccc(-c3ccc(NC(=O)C4(C(=O)Nc5ccc(F)cc5)CC4)cc3)c12` had a 50% inhibitory concentration (IC50) of 820 nM.

Consider `CN(C)Cc1cc(NC(=O)C2(C(=O)Nc3ccc(F)cc3)CC2)ccc1-c1cccc2[nH]nc(N)c12`, for which the half-inhibitory concentration (IC50) in assay [1] is above 1000 nM.

Consider `COc1cc(NC(=O)C2(C(=O)Nc3ccc(F)cc3)CC2)ccc1-c1cccc2[nH]nc(N)c12`, for which the IC50 in assay [1] is above 1000 nM.

For the compound `COc1cc(NC(=O)C2(C(=O)Nc3ccc(-c4cccc5onc(N)c45)cc3)CC2)cc(OC)c1OC`, in [1], the concentration for half-maximal inhibition (IC50) is above 1000 nM.

`Nc1noc2cccc(-c3ccc(NC(=O)CC(=O)Nc4ccc(F)cc4)cc3)c12` displayed an IC50 in assay [8] above 10000 nM.

For the compound `CN1CCN(c2ccc(NC(=O)C3(C(=O)Nc4ccc(-c5cccc6onc(N)c56)cc4)CC3)cc2F)CC1`, the concentration for half-maximal inhibition (IC50) in assay [1] is above 1000 nM.

Turning to `C[C@@H](Oc1cc(-c2cnn(C3CCNCC3)c2)cnc1N)c1c(Cl)ccc(F)c1Cl` [CRIZOTINIB], the 50% inhibitory concentration (IC50) in assay [8] came to 21 nM.

Consider `Nc1n[nH]c2cccc(-c3ccc(NC(=O)C4(C(=O)Nc5ccc(F)cc5)CC4)c4ccccc34)c12`, for which, in assay [1], the 50% inhibitory concentration (IC50) is above 1000 nM.

Turning to `Cn1nccc1-c1ccc(NC(=O)C2(C(=O)Nc3ccc(-c4cccc5onc(N)c45)cc3)CC2)cc1`, the IC50 in assay [1] is above 1000 nM.

With `Cc1ccc(NC(=O)C2(C(=O)Nc3ccc(-c4cccc5[nH]nc(N)c45)c(F)c3)CC2)cc1`, the midpoint of inhibition in [8], the IC50, lay at 910 nM.

On to `Nc1noc2cccc(-c3ccc(NC(=O)C4(C(=O)Nc5ccc(F)c(F)c5)CC4)cc3)c12`, for which, in assay [8], the half-inhibitory concentration (IC50) was above 10000 nM.

In turn, `CN1CCN(Cc2cc(NC(=O)C3(C(=O)Nc4ccc(-c5cccc6[nH]nc(N)c56)cc4)CC3)ccc2Cl)CC1` returned an IC50 in [8] above 10000 nM.

For `Nc1noc2cccc(-c3ccc(NC(=O)C4(C(=O)Nc5ccc(-c6cnn(C7CCNCC7)c6)cc5)CC4)cc3)c12`, the IC50 in [1] is above 1000 nM.

As for `CC(C)C(C(=O)Nc1ccc(F)cc1)C(=O)Nc1ccc(-c2cccc3onc(N)c23)cc1` (stereo unspecified), the concentration for half-maximal inhibition (IC50) in assay [1] was above 1000 nM.

In the case of `CC(C)(C(=O)Nc1ccc(F)cc1)C(=O)Nc1ccc(-c2cccc3onc(N)c23)cc1`, the IC50 in assay [1] is above 1000 nM.

Compound `Nc1n[nH]c2cccc(-c3ccc(NC(=O)C4(C(=O)Nc5ccc(F)cc5F)CC4)cc3)c12` showed an IC50 in assay [8] of 990 nM.

For `Nc1noc2cccc(-c3ccc(NC(=O)C4(C(=O)Nc5ccc(F)cc5)CC4)cc3)c12`, the IC50 was 1200 nM in [8] and above 1000 nM in assay [23].

Take `Cc1cc(NC(=O)C2(C(=O)Nc3ccc(F)cc3)CC2)ccc1-c1cccc2[nH]nc(N)c12`: the IC50 in assay [8] turned out to be 1000 nM.

Source of the values: ChEMBL document CHEMBL3392979, “Discovery and SAR study of c-Met kinase inhibitors bearing an 3-amino-benzo[d]isoxazole or 3-aminoindazole scaffold” (Bioorg Med Chem, 2015).
